# Data reported in US20260240179A1, “EDIBLE COMPOSITIONS AND METHODS FOR THE PRESERVATION OF FRUITS AND VEGETABLES” (ONYX LOTUS, LLC, priority 2023, published 2026).
# Where “and” joins values, the source holds several entries; their conditions need not be identical. Identical values can stand only once.
# Key:
# blueberries = experiment: Weight of dipped blueberries over time (moisture retention and freshness)
# Java plums = experiment: Weight of dipped Java plums over time (moisture retention and freshness)
# Protocol: Starting with two sets of java plums, each set containing eight plums, a control set is dipped in 95% ethanol and placed at room temperature and 50% Relative humidity. A second set, the treatment set, is dipped in a zein composition consisting of 100 mL 95% Ethanol+6 g zein powder. […] were weighed on days 1, 2, 3, 4, 6, 7. Weights were taken to approximate moisture retention and freshness. After 7 days, average weight loss of control (no zein applied) Java plums was 28.5% compared to 23.6% weight loss for zein treatment. Java plums treated with zein retained 17.2% more moisture compared to untreated plums.
# [1] = single fruit samples, zein dip (6 g in 100 mL 95% ethanol), 23-25° C., Day 1
substance,measurement,setting,value
zein,average weight loss,"blueberries; blueberries, after nine days, dipped in 100 mL 95% ethanol+6 g zein powder, control 43.1%",37.2%
same,more moisture retained compared to untreated berries,"blueberries; blueberries, after nine days, zein dip",13.7%
same,"Weight of blueberries, Day 1",blueberries; [1],1.6 grams and 1.79 grams and 1.62 grams and 1.71 grams and 1.7 grams
same,"Weight of blueberries, Day 2","blueberries; zein dip, 23-25° C., Day 2",1.52 grams and 1.7 grams and 1.53 grams and 1.63 grams
same,"Weight of blueberries, Day 3","blueberries; zein dip, 23-25° C., Day 3",1.44 grams and 1.6 grams and 1.54 grams and 1.55 grams
same,"Weight of blueberries, Day 5","blueberries; zein dip, 23-25° C., Day 5",1.3 grams and 1.65 grams and 1.99 grams and 1.63 grams
same,"Weight of blueberries, Day 6","blueberries; zein dip, 23-25° C., Day 6",1.23 grams and 1.22 grams and 1.37 grams and 1.32 grams and 1.36 grams
same,"Weight of blueberries, Day 7","blueberries; zein dip, 23-25° C., Day 7",1.16 grams and 1.31 grams and 1.26 grams and 1.3 grams
same,"Weight of blueberries, Day 8","blueberries; zein dip, 23-25° C., Day 8",1.09 grams and 1.1 grams and 1.26 grams and 1.19 grams
same,"Weight of blueberries, Day 11","blueberries; zein dip, 23-25° C., Day 11",1.06 grams and 1.2 grams and 1.15 grams and 1.19 grams
same,"Weight of blueberries, Day 12","blueberries; zein dip, 23-25° C., Day 12",0.97 grams and 0.98 grams and 1.12 grams and 1.08 grams and 1.13 grams
same,"Weight of blueberries, Day 13","blueberries; zein dip, 23-25° C., Day 13",0.85 grams and 0.86 grams and 1.01 grams and 0.97 grams
same,"Weight of blueberries, Day 14","blueberries; zein dip, 23-25° C., Day 14",0.82 grams and 0.832 grams and 0.98 grams and 0.94 grams
same,average weight loss,"Java plums; Java plums, after 7 days, dipped in 100 mL 95% ethanol+6 g zein powder, control 28.5%",23.6%
same,more moisture retained compared to untreated plums,"Java plums; Java plums, after 7 days, zein dip",17.2%
same,"Weight of Java plums, Day 1",Java plums; [1],15.82 grams and 15.19 grams and 11.63 grams and 11.83 grams and 16.16 grams and 14.65 grams and 14.35 grams and 12.88 grams
same,"Weight of Java plums, Day 2","Java plums; zein dip, 23-25° C., Day 2",15.03 grams and 14.42 grams and 10.79 grams and 11.19 grams and 13.65 grams and 13.13 grams and 13.63 grams and 12.24 grams
same,"Weight of Java plums, Day 3","Java plums; zein dip, 23-25° C., Day 3",14.46 grams and 13.88 grams and 10.33 grams and 10.72 grams and 12.96 grams and 19.13 grams and 11.78 grams
same,"Weight of Java plums, Day 4","Java plums; zein dip, 23-25° C., Day 4",13.72 grams and 13.16 grams and 9.72 grams and 9.12 grams and 12.36 grams and 12.67 grams and 11.18 grams
same,"Weight of Java plums, Day 6","Java plums; zein dip, 23-25° C., Day 6",12.53 grams and 12.02 grams and 8.73 grams and 11.33 grams and 11.39 grams and 10.2 grams
same,"Weight of Java plums, Day 7","Java plums; zein dip, 23-25° C., Day 7",12.15 grams and 11.66 grams and 8.4 grams and 11 grams and 11.03 grams and 9.87 grams
